Source: patent US4208514A, “4(3H)-Oxobenzo-2,1,3-thiadiazine-2,2-dioxides” (The Dow Chemical Company, priority 1976, dated 1980)

Key:
Format in all cases: in vivo
Cotton = assay: Selective post-emergent greenhouse test, Cotton (crop injury); details: Gossypium hirsutum, post-emergence, 336 h, post-emergent, 2 weeks, crop, read-out: % Control Cotton; for plant injury at 358.672 g/ha: 0.32 lbs/acre; for plant injury at 706.135 g/ha: 0.63 lbs/acre
Text: (§1) So as to illustrate clearly the phytotoxic properties of the various active ingredients of the present invention, a group of controlled greenhouse experiments is described below.
(§2) Various species of plants, both broadleaf weeds and valuable crops, were planted in beds of good agricultural soil in a greenhouse. After the plants had emerged and grown to a height of about 2-6 inches, a portion of the plants were sprayed with an aqueous mixture, made by mixing a selected active ingredient and emulsifier or dispersant with water to provide solution containing 250 or 125 ppm active ingredient, employing sufficient amounts of the treating composition to provide low post emergent application rates of about 0.63 or 0.32 pounds per acre. Other portions of the plants were left untreated to serve as controls. In each test the active ingredient was a 3-methylethyl-1H-2,1,3-benzothiadiazin-4(3H)-one-2,2-dioxide having a substituent in the one position according to the invention.
(§3) After a period of 2 weeks the selective effect of the test ingredient on the plants was evaluated by a comparison with the control group of plants.

Nutsedge = assay: General post-emergent herbicidal activity at 10 lbs/acre, Nutsedge; details: Cyperus, post-emergence, 336 h
Text: as §2, with “[…], […]” for “emulsifier or dispersant with water to provide solution containing 250 or 125 ppm active ingredient, employing sufficient amounts of the treating composition to provide low post emergent application rates of about 0.63 or 0.32 pounds per acre.”
as §3

Annual Morning Glory = assay: General post-emergent herbicidal activity at 10 lbs/acre, Annual Morning Glory; details: Ipomoea, post-emergence, 336 h
Text: as §2, with “[…], […]” for “emulsifier or dispersant with water to provide solution containing 250 or 125 ppm active ingredient, employing sufficient amounts of the treating composition to provide low post emergent application rates of about 0.63 or 0.32 pounds per acre.”
as §3

Pig Weed = assay: General post-emergent herbicidal activity at 10 lbs/acre, Pig Weed; details: post-emergence, 336 h
Text: as §2, with “[…], […]” for “emulsifier or dispersant with water to provide solution containing 250 or 125 ppm active ingredient, employing sufficient amounts of the treating composition to provide low post emergent application rates of about 0.63 or 0.32 pounds per acre.”
as §3

Soybean = assay: Selective post-emergent greenhouse test, Soybean (crop injury); details: Glycine max, post-emergence, 336 h, 2 weeks, read-out: % Control Soybean; for plant injury at 358.672 g/ha: 0.32 lbs/acre; for plant injury at 706.135 g/ha: 0.63 lbs/acre
Text: as §1, §2, §3

Jimson Weed = assay: Selective post-emergent greenhouse test, Jimson Weed; details: post-emergence, 336 h, 2 weeks; for pest or weed control at 358.672 g/ha: 0.32 lbs/acre; for pest or weed control at 706.135 g/ha: 0.63 lbs/acre
Text: as §1, §2, §3

Velvet Leaf [1] = assay: General post-emergent herbicidal activity at 10 lbs/acre, Velvet Leaf; details: post-emergence, 336 h
Text: as §2, with “[…], […]” for “emulsifier or dispersant with water to provide solution containing 250 or 125 ppm active ingredient, employing sufficient amounts of the treating composition to provide low post emergent application rates of about 0.63 or 0.32 pounds per acre.”
as §3

Velvet Leaf [2] = assay: Selective post-emergent greenhouse test, Velvet Leaf; details: post-emergence, 336 h, 2 weeks; for pest or weed control at 358.672 g/ha: 0.32 lbs/acre; for pest or weed control at 706.135 g/ha: 0.63 lbs/acre
Text: as §1, §2, §3

SMILES	plant injury at 358.672 g/ha (Cotton) [%]	plant injury at 706.135 g/ha (Cotton) [%]	pest or weed control at 11208.5 g/ha (Nutsedge) [%]	pest or weed control at 11208.5 g/ha (Annual Morning Glory) [%]	pest or weed control at 11208.5 g/ha (Pig Weed) [%]	plant injury at 358.672 g/ha (Soybean) [%]	plant injury at 706.135 g/ha (Soybean) [%]	pest or weed control at 358.672 g/ha (Jimson Weed) [%]	pest or weed control at 706.135 g/ha (Jimson Weed) [%]	pest or weed control at 11208.5 g/ha (Velvet Leaf [1]) [%]	pest or weed control at 358.672 g/ha (Velvet Leaf [2]) [%]	pest or weed control at 706.135 g/ha (Velvet Leaf [2]) [%]
CC(=O)N1c2ccccc2C(=O)N(C(C)C)S1(=O)=O [COCH3, 1H-2,1,3-Benzothiadiazin-4(3H)-one: 1-acetyl-3-(1-methyl-ethyl)-; 2,2-dioxide]	5	0	95	100	100	0	0	60	60	100	100	100
CCCC(=O)N1c2ccccc2C(=O)N(C(C)C)S1(=O)=O [COCH2 CH2 CH3]	–	–	90	100	100	–	–	–	–	100	–	–
C=CCOC(=O)N1c2ccccc2C(=O)N(C(C)C)S1(=O)=O [CO2 CH2 CHCH2, 1H-2,1,3-Benzothiadiazine-1-carboxylic Acid: 3,4-dihydro-3-(1-methylethyl)-4-oxo-, 2-Propenyl Ester, 2,2-Dioxide]	50	50	95	100	100	0	0	100	100	100	100	100
COC(=O)N1c2ccccc2C(=O)N(C(C)C)S1(=O)=O [CO2 CH3]	0	10	50	100	100	0	0	100	100	100	100	100
CCCCS(=O)(=O)N1c2ccccc2C(=O)N(C(C)C)S1(=O)=O [SO2 (CH2)3 CH3, 1H-2,1,3-Benzothiadiazin-4(3H)-one: 1-Butylsulfonyl-3-(1-methylethyl)-; 2,2-dioxide]	–	–	85	100	100	–	–	–	–	100	–	–
CSC(=O)N1c2ccccc2C(=O)N(C(C)C)S1(=O)=O [COSCH3, 1H-2,1,3-Benzothiadiazin-1-carbothioic acid: 3,4-Dihydro-3-(1-methylethyl)-4-oxo-, S-methyl ester; 2,2-Dioxide]	90	100	85	100	100	0	0	100	100	100	90	100
CC(C)N1C(=O)c2ccccc2N(S(=O)(=O)C(C)C)S1(=O)=O [SO2 CH(CH3)2, 1H-2,1,3-Benzothiadiazin-4(3H)-one: 3-(1-methylethyl)-1-(1-methylethylsulfonyl)-; 2,2-dioxide]	–	–	85	100	100	–	–	–	–	100	–	–
CCSC(=O)N1c2ccccc2C(=O)N(C(C)C)S1(=O)=O [COSCH2 CH3, 1H-2,1,3-Benzothiadiazine-1-carbothioic acid: 3,4-Dihydro-3-(1-methylethyl)-4-oxo, S-ethyl ester; 2,2-dioxide]	100	100	95	100	100	0	0	100	100	100	100	100
CCCCOC(=O)N1c2ccccc2C(=O)N(C(C)C)S1(=O)=O [CO2 (CH2)3 CH3]	–	–	95	100	100	–	–	–	–	100	–	–
CC(Cl)C(=O)N1c2ccccc2C(=O)N(C(C)C)S1(=O)=O (centres unmarked) [COCHClCH3, 1H-2,1,3-Benzothiadiazin-4(3H)-one: 1-(2-chloro-1-oxopropyl)-3-(1-methylethyl)-; 2,2-dioxide]	0	100	95	100	100	0	0	100	100	100	100	100
COC(=O)CCC(=O)N1c2ccccc2C(=O)N(C(C)C)S1(=O)=O [COCH2 CH2 CO2 CH3, 1H-2,1,3-Benzothiadiazin-1-butanoic acid; γ,4-Dioxo-3-(1-methylethyl)-3,4-dihydro-, methyl ester; 2,2-dioxide]	–	–	95	100	–	–	–	–	–	100	–	–
CC(C)OC(=O)N1c2ccccc2C(=O)N(C(C)C)S1(=O)=O [CO2 CH(CH3)2]	–	–	70	50	0	–	–	–	–	100	–	–
CCCOC(=O)N1c2ccccc2C(=O)N(C(C)C)S1(=O)=O [CO2 CH2 CH2 CH3]	–	–	90	100	100	–	–	–	–	100	–	–
CC(C)C(=O)N1c2ccccc2C(=O)N(C(C)C)S1(=O)=O [COCH(CH3)2, 1H-2,1,3-Benzothiadiazin-4 (3H)-one:3-(1-methylethyl)-1-(2- -methyl-1-oxopropyl)-2,2-dioxide]	–	–	95	100	–	–	–	–	–	100	–	–
CCS(=O)(=O)N1c2ccccc2C(=O)N(C(C)C)S1(=O)=O [SO2 CH2 CH3, 1H-2,1,3-Benzothiadiazin-4(3H)-one; 1-Ethylsulfonyl-3-(1-methylethyl)-; 2,2-dioxide]	–	–	85	100	100	–	–	–	–	100	–	–
CCCC(C)C(=O)N1c2ccccc2C(=O)N(C(C)C)S1(=O)=O (centres unmarked) [COCH(CH3)CH2 CH2 CH3, 1H-2,1,3-Benzothiadiazin-4(3H)-one: 3-(1-methylethyl)-1-(2-methyl-1-oxopentyl)-; 2,2-dioxide]	–	–	95	100	–	–	–	–	–	100	–	–
CCCS(=O)(=O)N1c2ccccc2C(=O)N(C(C)C)S1(=O)=O [SO2 CH2 CH 2 CH3, 1H-2,1,3-Benzothiadiazin-4(3H)-one: 3-(1-methylethyl)-1-propylsulfonyl-; 2,2-dioxide]	–	–	90	100	100	–	–	–	–	100	–	–
CCN(CC)S(=O)(=O)N1c2ccccc2C(=O)N(C(C)C)S1(=O)=O [SO2 N(C2 H5)2]	–	–	60	100	100	–	–	–	–	100	–	–
CC(C)N1C(=O)c2ccccc2N(S(C)(=O)=O)S1(=O)=O [SO2 CH3, 1H-2,1,3-Benzothiadiazin-4(3H)-one: 3-(1-methylethyl)-1-methylsulfonyl-; 2,2-dioxide]	–	–	20	100	100	–	–	–	–	100	–	–
CC(C)N1C(=O)c2ccccc2N(S(=O)(=O)CCl)S1(=O)=O [SO2 CHCl, 1H-2,1,3-Benzothiadiazin-4(3H)-one: 1-chloromethylsulfonyl-3-(1-methylethyl)-; 2,2-dioxide]	–	–	90	80	100	–	–	–	–	100	–	–
